From patent US12410113B2, “Sandalwood-type fragrance compounds” (SYMRISE AG, priority 2019, dated 2025)

Experiment: Odor detection threshold (ODT) by olfactometer TO8 and a panel of experts according to EN 13725
Conditions: for ODT (exp.) (−log): odor detection threshold as −log; for ODT (exp.) / ODT* (exp.) (ppm (v/v)): odor detection threshold, olfactometer TO8, expert panel, EN 13725
Procedure: The ODT was measured by an olfactometer TO8 and a panel of experts according to standard EN 13725.

| Compound | ODT (exp.) (−log) | ODT (exp.) [ng/L] | ODT* (exp.) (ppm (v/v)) | factor by which threshold value is lower than Brahmanol (in comparison with Brahmanol) |
| --- | --- | --- | --- | --- |
| CC1=CCC(CCC(C)CO)C1(C)C (stereo not shown) [Brahmanol, 2-methyl-4-(2′,2′,3′-trimethyl-3′-cyclopenten-1′-yl)-butan-1-ol, reference compound] | 6.85E+00 | 141.22 | 1.73E−02 ppm (v/v) | – |
| C=C(CO)CCC1CC=C(C)C1(C)C (stereo not shown) [Compound A, 2-methylene-4-(2,2,3-trimethylcyclopent-3-en-1-yl)butan-1-ol] | 8.36E+00 | 4.34 | 5.37E−04 ppm (v/v) | about 35 |
